Laboratory results as given in article PMC9241695, “Selective Metal Chelation by a Thiosemicarbazone Derivative Interferes with Mitochondrial Respiration and Ribosome Biogenesis in Candida albicans” (Microbiology Spectrum, 2022).
Converted amounts (≈) assume the structure as drawn.

Tests used:
[1] = tested on: C. tropicalis CT2; test: Microbroth dilution MIC80; format: cell-based; conditions: Candida tropicalis, CT2
From the text: (§1) Compound library. The thiosemicarbazone derivatives Triapine and COTI-2 were purchased from Med Chem Express (MCE). The other 87 thiosemicarbazones used in this study were previously synthesized by our collaborators (1, 2). Their structures are shown in Table 1 and Table S1 to help the reader clearly understand the relationship between structure and activity.
(§2) Strains and culture conditions. Clinically derived C. albicans isolates, including G5, F5, and Gu5, were kindly provided by Professor Joachim Morschhäuser of the University of Würzburg. Other clinical C. albicans isolates were kindly donated by Professor Qingguo Qi of Shandong University and Qianfoshan Hospital of Shandong Province Other Candida strains were obtained from Jinan Central Hospital.
(§3) The zap1 mutant and its complemented strain were kindly provided by Professor Aaron P. Mitchell of Carnegie Mellon University (3). The C. neoformans strains used in this study was kindly donated by Professor Guojian Liao of Southwest University and A. fumigatus strain used in this study was provided by Professor Ling Lu of Nanjing Normal University. Before in vitro and in vivo experiments, all C. albicans strains were grown on YPD agar plates. After culturing at 30°C for 24 h, colonies of each strain were cultured in liquid YPD medium at 30°C with continuous shaking […]
(§4) Antifungal susceptibility testing. To determine in vitro antifungal activities, the microbroth dilution method was carried out in RPMI1640 medium according to the guidelines of the Clinical and Laboratory Standards Institute (4, 5). The initial concentration in RPMI1640 medium was 1 × 10^3 CFU/mL for the C. albicans and C. neoformans suspensions but 1 × 10^4 CFU/mL for A. fumigatus. The range of final drug concentrations was 0.0156–64 μg/mL. The plates were incubated at35°C for 24 […]
(§5) h (for C. albicans, C. krusei, C. tropicalis, C. parapsilosis) or 48 h (for C. neoformans, A. fumigatus). The MIC was determined based on visible growth inhibition compared with the control. All experiments were performed in duplicate. […]

[2] = tested on: C. albicans 24g; test: Microbroth dilution MIC80; format: cell-based; conditions: Candida albicans, 24G
From the text: as §1, §2, §3, §4, §5

[3] = tested on: C. albicans 28D; test: Microbroth dilution MIC80; format: cell-based; conditions: Candida albicans, 28D
From the text: as §1, §2, §3, §4, §5

[4] = tested on: C. albicans YEM13; test: Microbroth dilution MIC80; format: cell-based; conditions: Candida albicans
From the text: as §1, §2, §3, §4, §5

[5] = tested on: C. albicans CA1; test: Microbroth dilution MIC80; format: cell-based; conditions: Candida albicans, CA1
From the text: as §1, §2, §3, §4, §5

[6] = tested on: C. albicans DSY654; test: Microbroth dilution MIC80; format: cell-based; conditions: Candida albicans
From the text: as §1, §2, §3, §4, §5

[7] = tested on: C. albicans CA3; test: Microbroth dilution MIC80; format: cell-based; conditions: Candida albicans, CA3
From the text: as §1, §2, §3, §4, §5

[8] = tested on: C. albicans CA4; test: Microbroth dilution MIC80; format: cell-based; conditions: Candida albicans, CA4
From the text: as §1, §2, §3, §4, §5

[9] = tested on: C. albicans 11e; test: Microbroth dilution MIC80; format: cell-based; conditions: Candida albicans, 11E
From the text: as §1, §2, §3, §4, §5

[10] = tested on: C. albicans YEM15; test: Microbroth dilution MIC80; format: cell-based; conditions: Candida albicans, YEM15
From the text: as §1, §2, §3, §4, §5

[11] = tested on: C. neoformans 108; test: Microbroth dilution MIC80; format: cell-based; conditions: Cryptococcus neoformans, 108
From the text: as §1, §2, §3, §4, §5

[12] = tested on: A. fumigatus 1161; test: Microbroth dilution MIC80; format: cell-based; conditions: Aspergillus fumigatus, 1161
From the text: as §1, §2, §3, §4, §5

[13] = tested on: C. albicans SC5314; test: Antifungal susceptibility testing, microbroth dilution MIC; format: cell-based; conditions: Candida albicans, SC5314; C. albicans wild-type strain; RPMI1640, 35°C, 24 h; read-out: MIC (μg/mL) against fungi SC5314
From the text: as §1, §2, §3, §4, §5

[14] = tested on: C. parapsilosis CP001; test: Microbroth dilution MIC80; format: cell-based, Candida parapsilosis; conditions: Lodderomyces parapsilosis, CP001
From the text: as §1, §2, §3, §4, §5

[15] = tested on: C. krusei CK1; test: Microbroth dilution MIC80; format: cell-based, Candida krusei; conditions: Pichia kudriavzevii, CK1
From the text: as §1, §2, §3, §4, §5

## S=C(N/N=C/c1ccc(Br)cn1)Nc1ccc(Br)cc1 [Compound 19k]
[1]
  MIC80: 2 µg/mL (≈ 4.83 µM)
[2]
  MIC80: 1 µg/mL (≈ 2.41 µM)
[3]
  MIC80: 1 µg/mL (≈ 2.41 µM)
[4]
  MIC80: 2 µg/mL (≈ 4.83 µM)
[5]
  MIC80: 1 µg/mL (≈ 2.41 µM)
[6]
  MIC80: 1 µg/mL (≈ 2.41 µM)
[7]
  MIC80: 1 µg/mL (≈ 2.41 µM)
[8]
  MIC80: 0.5 µg/mL (≈ 1.21 µM)
[9]
  MIC80: 2 µg/mL (≈ 4.83 µM)
[10]
  MIC80: 2 µg/mL (≈ 4.83 µM)
[11]
  MIC80: 0.031 µg/mL (≈ 0.0749 µM)
[12]
  MIC80: 0.5 µg/mL (≈ 1.21 µM)
[13]
  MIC: 1 µg/mL (≈ 2.41 µM)
[14]
  MIC80: 2 µg/mL (≈ 4.83 µM)
[15]
  MIC80: 4 µg/mL (≈ 9.66 µM)
